Laboratory results: ChEMBL document CHEMBL1201862, “PubChem BioAssay data set” (2004)
Counter-ions that a name gives are not always drawn.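 Five compound concentrations were applied to cells in 96-well plates for 48 hours; endpoints were derived by simple linear interpolation of the resulting dose-response curve. GI50: concentration for 50% inhibition of growth.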 The source made the active and inactive calls. Cut-off read from the data, not from the text of the source: active = GI50 up to about 1.1 µM and inactive = higher.

How the values were obtained:
Test in all cases: inhibition of tumour cell growth, NCI panel, 48 h
SNB-19 = test system: SNB-19
OVCAR-5 = test system: OVCAR-5
MDA-MB-435 = test system: MDA-MB-435
SNB-75 = test system: SNB-75
UACC-257 = test system: UACC-257
MDA-MB-231 = test system: MDA-MB-231
SN12C = test system: SN12C
CCRF-CEM = test system: CCRF-CEM
NCI-H23 = test system: NCI-H23
SK-MEL-28 = test system: SK-MEL-28
786-0 = test system: 786-0
IGROV-1 = test system: IGROV-1
HCC 2998 = test system: HCC 2998
ACHN = test system: ACHN
EKVX = test system: EKVX
A549 = test system: A549
A498 = test system: A498
U-251 = test system: U-251
HOP-62 = test system: HOP-62
BT-549 = test system: BT-549
TK-10 = test system: TK-10
OVCAR-8 = test system: OVCAR-8
MOLT-4 = test system: MOLT-4
MDA-N = test system: MDA-N
SF-295 = test system: SF-295
NCI/ADR-RES = test system: NCI/ADR-RES
HCT-15 = test system: HCT-15
SK-OV-3 = test system: SK-OV-3
SF-268 = test system: SF-268
K562 = test system: K562
OVCAR-3 = test system: OVCAR-3
NCI-H522 = test system: NCI-H522
UACC-62 = test system: UACC-62
M14 = test system: M14
HOP-92 = test system: HOP-92
HL-60 = test system: HL-60
LOX IMVI = test system: LOX IMVI
HT-29 = test system: HT-29
OVCAR-4 = test system: OVCAR-4
COLO 205 = test system: COLO 205
UO-31 = test system: UO-31
SF-539 = test system: SF-539
NCI-H460 = test system: NCI-H460
CAKI-1 = test system: CAKI-1
Hs-578T = test system: Hs-578T
NCI-H226 = test system: NCI-H226
SW-620 = test system: SW-620
HCT-116 = test system: HCT-116
KM12 = test system: KM12
SK-MEL-5 = test system: SK-MEL-5
MCF7 = test system: MCF7
DU-145 = test system: DU-145
RXF 393 = test system: RXF 393
SR = test system: SR
PC-3 = test system: PC-3
RPMI-8226 = test system: RPMI-8226
SK-MEL-2 = test system: SK-MEL-2
T47D = test system: T47D
Malme-3M = test system: Malme-3M

Measured: GI50

OC1(c2cc3ccccc3s2)CCCCC1
39.1 µM: HCT-15
inactive: SNB-19 82.4 µM | OVCAR-5 40.8 µM | MDA-MB-435 46.8 µM | SNB-75 35.1 µM | UACC-257 32.6 µM | MDA-MB-231 30.8 µM | SN12C 30.9 µM | CCRF-CEM 21.4 µM | NCI-H23 46.6 µM | SK-MEL-28 81.3 µM | 786-0 34 µM | IGROV-1 87.5 µM | HCC 2998 76 µM | ACHN 69 µM | EKVX 33.6 µM | A549 40.8 µM | A498 43.2 µM | U-251 49.5 µM | HOP-62 > 100 µM | BT-549 55.7 µM | TK-10 64.4 µM | OVCAR-8 42.6 µM | MOLT-4 25.8 µM | MDA-N 38.4 µM | SF-295 37.9 µM | NCI/ADR-RES 47.2 µM | SK-OV-3 66.4 µM | SF-268 29.2 µM | K562 34.4 µM | OVCAR-3 30.1 µM | NCI-H522 28.1 µM | UACC-62 69.7 µM | M14 66.8 µM | HOP-92 18 µM | HL-60 37.7 µM | LOX IMVI 45.8 µM | HT-29 23.7 µM | OVCAR-4 39.2 µM | COLO 205 19.9 µM | UO-31 51.1 µM | SF-539 > 100 µM | NCI-H460 44.2 µM | CAKI-1 > 100 µM | Hs-578T 28.5 µM | NCI-H226 80.9 µM | SW-620 50.1 µM | HCT-116 33.3 µM | KM12 41.3 µM | SK-MEL-5 34.7 µM | MCF7 36.6 µM | DU-145 63.2 µM | RXF 393 39.4 µM | SR 38.4 µM

NCCc1cc(O)c(O)cc1O [OXIDOPAMINE HYDROCHLORIDE]
active: SR 0.619 µM
inactive: SNB-19 32.5 µM | OVCAR-5 37.1 µM | PC-3 33.1 µM | MDA-MB-435 18.9 µM | SNB-75 23.7 µM | UACC-257 20.4 µM | MDA-MB-231 19.5 µM | SN12C 25.3 µM | CCRF-CEM 3.97 µM | RPMI-8226 3.19 µM | SK-MEL-28 > 100 µM | 786-0 18.6 µM | IGROV-1 19.3 µM | HCC 2998 56.2 µM | ACHN 20.9 µM | EKVX 26.6 µM | A549 35 µM | A498 > 100 µM | SK-MEL-2 43.5 µM | HOP-62 22.9 µM | BT-549 16.6 µM | TK-10 62.5 µM | OVCAR-8 32.4 µM | MOLT-4 21.8 µM | MDA-N 22.6 µM | SF-295 24 µM | NCI/ADR-RES 34.4 µM | SK-OV-3 > 100 µM | SF-268 21.8 µM | K562 21.5 µM | OVCAR-3 55.7 µM | UACC-62 31.2 µM | M14 20 µM | T47D 23.1 µM | Malme-3M > 100 µM | HT-29 32.3 µM | COLO 205 41.9 µM | UO-31 25.2 µM | SF-539 19.2 µM | NCI-H460 29.2 µM | CAKI-1 18.6 µM | SW-620 21 µM | HCT-116 18.7 µM | KM12 17.5 µM | SK-MEL-5 18.5 µM | MCF7 25.3 µM | DU-145 17.7 µM | RXF 393 51.4 µM
17.1 µM: HCT-15

C[n+]1c(-c2ccc(/C=N/Nc3ccnc(N/N=C/c4ccc(-c5cn6ccsc6[n+]5C)cc4)n3)cc2)cn2ccsc21
27.5 µM: HCT-15
inactive: SNB-19 32.8 µM | OVCAR-5 19.1 µM | PC-3 30.2 µM | MDA-MB-435 4.57 µM | SNB-75 20 µM | UACC-257 25.5 µM | MDA-MB-231 32.7 µM | SN12C 31.5 µM | CCRF-CEM 14.9 µM | NCI-H23 22.9 µM | RPMI-8226 8.61 µM | 786-0 15.8 µM | IGROV-1 19.1 µM | HCC 2998 31.6 µM | ACHN 23.9 µM | EKVX 18.8 µM | A549 28.6 µM | A498 27.9 µM | SK-MEL-2 29.8 µM | U-251 30.9 µM | HOP-62 25.9 µM | BT-549 36.1 µM | TK-10 25.8 µM | OVCAR-8 28.9 µM | MOLT-4 17.8 µM | MDA-N 3.94 µM | NCI/ADR-RES 39.7 µM | SK-OV-3 > 100 µM | K562 12.1 µM | OVCAR-3 > 100 µM | NCI-H522 92.7 µM | UACC-62 25.1 µM | M14 8.81 µM | HOP-92 31.5 µM | Malme-3M 29.9 µM | HT-29 16.9 µM | OVCAR-4 51.9 µM | COLO 205 35.4 µM | UO-31 18.8 µM | SF-539 27 µM | NCI-H460 16.9 µM | CAKI-1 18.5 µM | Hs-578T 69.5 µM | NCI-H226 17.7 µM | SW-620 33 µM | KM12 22.1 µM | SK-MEL-5 19.3 µM | MCF7 48.4 µM | DU-145 27.7 µM | RXF 393 21.5 µM | SR 11.3 µM

CCOC(=O)c1cn(CC)c(=O)n2c1nc1ccccc12
inactive: SNB-19 > 100 µM | OVCAR-5 > 100 µM | PC-3 > 100 µM | MDA-MB-435 > 100 µM | SNB-75 > 100 µM | UACC-257 > 100 µM | MDA-MB-231 > 100 µM | SN12C > 100 µM | CCRF-CEM 28.4 µM | NCI-H23 55.7 µM | RPMI-8226 24.4 µM | SK-MEL-28 > 100 µM | 786-0 58.5 µM | IGROV-1 33.3 µM | HCC 2998 96.8 µM | ACHN 55 µM | EKVX > 100 µM | A549 58.7 µM | A498 32.4 µM | SK-MEL-2 > 100 µM | U-251 > 100 µM | HOP-62 > 100 µM | BT-549 56.9 µM | OVCAR-8 38.3 µM | MOLT-4 14.1 µM | MDA-N > 100 µM | SF-295 > 100 µM | NCI/ADR-RES 62.5 µM | K562 42.1 µM | OVCAR-3 83.8 µM | UACC-62 57.5 µM | M14 > 100 µM | HOP-92 30.1 µM | LOX IMVI 31.9 µM | T47D 63.5 µM | HT-29 36.7 µM | OVCAR-4 35.3 µM | COLO 205 > 100 µM | UO-31 3.48 µM | SF-539 55.5 µM | NCI-H460 35.4 µM | CAKI-1 57.9 µM | NCI-H226 44.3 µM | SW-620 > 100 µM | HCT-116 50.6 µM | KM12 59.6 µM | SK-MEL-5 49.8 µM | MCF7 54.6 µM | DU-145 45.5 µM | RXF 393 61.9 µM | SR 28.4 µM
40.2 µM: HCT-15

OCCSCCCSCCO
> 100 µM: HCT-15
inactive: SNB-19 > 100 µM | OVCAR-5 > 100 µM | PC-3 > 100 µM | MDA-MB-435 > 10 µM | SNB-75 > 100 µM | UACC-257 > 100 µM | MDA-MB-231 > 100 µM | SN12C > 100 µM | CCRF-CEM 36.8 µM | NCI-H23 > 100 µM | SK-MEL-28 > 100 µM | 786-0 > 100 µM | IGROV-1 > 100 µM | HCC 2998 > 100 µM | EKVX > 100 µM | A549 > 100 µM | U-251 > 100 µM | HOP-62 > 100 µM | BT-549 > 100 µM | TK-10 > 100 µM | OVCAR-8 > 100 µM | MOLT-4 32.1 µM | MDA-N > 100 µM | SF-295 > 100 µM | NCI/ADR-RES > 100 µM | SK-OV-3 > 100 µM | SF-268 > 100 µM | K562 > 100 µM | OVCAR-3 > 100 µM | NCI-H522 > 100 µM | UACC-62 > 100 µM | M14 > 100 µM | HOP-92 27.1 µM | HL-60 30.7 µM | LOX IMVI > 100 µM | T47D > 100 µM | HT-29 > 100 µM | OVCAR-4 > 100 µM | COLO 205 > 100 µM | UO-31 > 100 µM | SF-539 > 100 µM | NCI-H460 34.8 µM | SW-620 > 100 µM | HCT-116 > 100 µM | KM12 > 100 µM | SK-MEL-5 > 100 µM | MCF7 > 100 µM | DU-145 > 100 µM | SR 39.9 µM
